{"source": "paper PMC5652740", "about": "“Inhibition of HIV-1 infection in humanized mice and metabolic stability of protein phosphatase-1-targeting small molecule 1E7-03” (Oncotarget, 2017)", "key": {"[1]": {"test": "1E7-03 degradation in monkey plasma", "assay_type": "in vitro ADME", "settings": "37°C", "protocol": "1E7-03 dissolved in DMSO (10 mM stock solution) was mixed with mouse plasma (Sigma-Aldrich), guinea pig plasma (Sigma-Aldrich), ferret plasma (BioreclamationIVT), monkey plasma (courtesy of Binhua Ling, PhD, Tulane University) and human plasma (collected from heathy volunteer by the Center for Sickle Cell Disease at Howard University) to the final concentration of 10 μM and incubated at 37°C. Aliquots were collected at different time points for up to 24 hrs. The resulting sample (60 μl) was mixed with 240 μl of cold acetone, vortexed for 2 min, kept at –20°C for 30 min, and then the precipitated protein was removed by centrifugation at 13,000 × g for 5 min. The supernatant was transferred to a clean test tube and evaporated to dryness using a SpeedVac concentrator. The residue reconstituted in 60 μl of acetonitrile for LC/FT-MS analysis. All experiments were run parallel in triplicates."}, "[2]": {"system": "PP1 regulatory subunit Sds22", "test": "Label free quantitative proteomics of HIV-1 infected CEM T cells", "assay_type": "cell-based", "settings": "10 μM, SIEVE quantification", "protocol": "CEM T cells were infected with VSVG-pseudotyped pNL4-3.Luc.R-E-virus (HIV-1-LUC-G) and cultured in 100 mm culture plates (1.25 × 10^6 cells/ml) containing 10 ml of supplemented RPMI media at 37°C and 5% CO2. The cells were treated with 10 μM of 1E7-03 or vehicle (DMSO) and incubated overnight. Cells were collected and washed three times with PBS. To obtain cell lysates, the cells were suspended in 1 ml cold whole cell lysis buffer (50 mM Tris-HCl, pH 7.5, 0.5 M NaCl, 1% NP-40, 0.1% SDS) with protease and phosphatase inhibitors (P044-1ML, Sigma Aldrich). The cytosolic protein fraction was isolated by centrifugation at 13,000xg for 30 min at 4 °C to remove cellular debris. […]\nTryptic peptides were purified by Pierce™ Graphite Spin Columns following manufacturer's instructions, resuspended in water with 0.1% formic acid (v/v) and analyzed by an LTQ Orbitrap XL mass spectrometer (Thermo Fisher Scientific) coupled to a Prominence Nano LC (Shimadzu) using the Xcalibur version 2.7.0 (Thermo Scientific). […]\nLC-MS/MS raw data were searched by Proteome Discoverer 1.4 using Sequest search engine (Thermo Fisher Scientific), against the Uniprot Human database (6/10/2016, 135431 sequences) at a false discovery cut off ≤1%. […] The label-free quantification of peptides eluting between 10 and 80 min was performed with SIEVE 2.1 software (Thermo Scientific). […]"}, "[3]": {"system": "RSP13 and β-actin mRNA in CEM T cells", "test": "Cellular transcription, RSP13 and β-actin mRNA by real-time RT-PCR", "assay_type": "cell-based", "settings": "10 μM, in words", "protocol": "For quantitative analysis of HIV-1 RNA, CEM T cells were infected with HIV-1-LUC-G virus. Cells were treated with 10 μM 1E7-03, 10 μM DP1, 10 μM DP3, 5 μM AZT or 5 μM 3TC and control cells were untreated or treated with DMSO. Total RNA was isolated using Trizol Reagent (Invitrogen, Carlsbad, CA) according to the manufacturer's protocol. Total RNA (100 ng) was reverse transcribed to cDNA using Superscript™ RT-PCR kit (Invitrogen, Carlsbad, CA). Hexamers and oligo-dT were used as primers. For real-time PCR analysis, cDNA was amplified using Roche LightCycler 480 (Roche Diagnostics) and SYBR Green1 Master mix (Roche Diagnostics). PCR was run for 45 cycles and each cycle included denaturation at 95°C for 10 seconds, annealing at 60°C for 10 seconds, and extension at 72°C for 10 seconds. Quantification of env and gag was carried using 18S RNA as a normalization standard. Quantification of housekeeping genes, β-actin and RSP13 was carried relative to 18S RNA. Mean Cp values were determined and ΔΔCt method was used to calculate relative expression levels. Unpaired t-test was used to test statistical significance.\nThe following primer sequences were used: env, forward - […], reverse-[…]; gag, forward- […], reverse- […]; β-actin, forward- […], reverse-[…]; RSP13, forward- […], reverse- […]; and 18SrRNA, forward- […], reverse- […]."}}, "data": [{"smiles": "CCNC(=O)NC(=O)C(C)OC(=O)c1c2c(nc3ccccc13)/C(=C/c1ccc(OC)c(OC)c1)CC2", "note": "(centres unmarked) [1E7-03]", "values": [{"measurement": "remaining at 24 h, 10 µM", "setting": "[1]", "result": "> 50", "unit": "%"}, {"measurement": "Sds22 Ratio 1E7-03/Control", "setting": "[2]", "result": 0.804}, {"measurement": "α-tubulin Ratio 1E7-03/Control", "setting": "[2]", "result": 0.936}, {"measurement": "RSP13 mRNA expression", "setting": "[3]", "result": "slight induction"}, {"measurement": "β-actin mRNA expression", "setting": "[3]", "result": "slight induction"}]}]}
